Source: patent US20260374818A1, “CATIONIC PEPTIDES WITH BROAD SPECTRUM ACTIVITY” (priority 2023, published 2026)
Where two headings read alike, the source gives them in different places.

Tests used:
[1] = test system: P. aeruginosa PAO1 planktonic cells; test: MIC of antibiotics against planktonic cells, PAO1; format: cell-based, Pseudomonas aeruginosa; settings: for MIC against planktonic cells in BM2 medium: PAO1, BM2; for MIC against planktonic cells in MHB medium: PAO1, MHB; for MIC: Pseudomonas aeruginosa
[2] = test system: P. aeruginosa PAO1 biofilms; test: Checkerboard biofilm synergy of AB103-D with antimicrobials, PAO1; format: cell-based, Pseudomonas aeruginosa; settings: for Antibiotic MBIC against biofilms: antibiotic alone, PAO1, BM2, at least 70% reduction; for FIC against biofilms: antibiotic used with AB103-D, PAO1, BM2, ≤0.5 synergy; for Fold Decrease in concentration of AB103-D: in combination of antibiotic with AB103-D; for Fold Decrease in concentration of AB103-D / Fold Decrease in concentration of Antibiotic: PAO1; for Fold Decrease in concentration of Antibiotic: in combination with AB103-D
[3] = test system: MRSA USA 300 LAC planktonic cells; test: MIC of antibiotics against planktonic cells, MRSA; format: cell-based, methicillin resistant Staphylococcus aureus; settings: for MIC in 10% TSB, 0.1% glucose / MIC in MHB medium: MRSA planktonic; for MIC: Staphylococcus aureus
[4] = test system: MRSA USA 300 LAC biofilms; test: Checkerboard biofilm synergy of AB103-D with antimicrobials, MRSA; format: cell-based, methicillin resistant Staphylococcus aureus; settings: for Biofilm MBIC in 10% TSB, 0.1% glucose: antibiotic alone, at least 70% reduction; for Biofilm MBIC in 10% TSB, 0.1% glucose / Fold decrease AB103-D / Fold decrease Antibiotic: MRSA; for FIC: antibiotic used with AB103-D, MRSA USA 300 LAC, ≤0.5 synergy; for Fold decrease AB103-D: in combination of antibiotic with AB103-D; for Fold decrease Antibiotic: in combination with AB103-D
[5] = PAO1, read-out: MIC against planktonic cells in BM2 medium
[6] = PAO1, read-out: MIC against planktonic cells in MHB medium
[7] = read-out: MIC in 10% TSB, 0.1% glucose

| Compound | MIC against planktonic cells in BM2 medium [1] [µg/mL] | MIC against planktonic cells in MHB medium [1] [µg/mL] | Antibiotic MBIC against biofilms [2] [µg/mL] | FIC against biofilms [2] | Fold Decrease in concentration of AB103-D [2] | Fold Decrease in concentration of Antibiotic [2] | MIC in 10% TSB, 0.1% glucose [3] | MIC in MHB medium [3] [µg/mL] | Biofilm MBIC in 10% TSB, 0.1% glucose [4] | FIC [4] | Fold decrease AB103-D [4] | Fold decrease Antibiotic [4] | MIC [1, 5] [µg/mL] | MIC [1, 6] [µg/mL] | MIC [3, 7] [µg/mL] | MIC ([3]; read-out: MIC in MHB medium) [µg/mL] |
| --- | --- | --- | --- | --- | --- | --- | --- | --- | --- | --- | --- | --- | --- | --- | --- | --- |
| O=C(O)CN(CCN(CC(=O)O)CC(=O)O)CC(=O)O [EDTA] | >256 | >256 | 128 | 1.02 | No | 64-fold | 128 | 64 | 128 | 0.38 | 4-fold | 8-fold |  |  |  |  |
| CN[C@H](CC(C)C)C(=O)N[C@H]1C(=O)N[C@@H](CC(N)=O)C(=O)N[C@H]2C(=O)N[C@H]3C(=O)N[C@H](C(=O)N[C@H](C(=O)O)c4cc(O)cc(O)c4-c4cc3ccc4O)[C@H](O)c3ccc(c(Cl)c3)Oc3cc2cc(c3O[C@@H]2O[C@H](CO)[C@@H](O)[C@H](O)[C@H]2O[C@H]2C[C@](C)(N)[C@H](O)[C@H](C)O2)Oc2ccc(cc2Cl)[C@H]1O [Vancomycin] |  |  |  | 0.56 | 2-fold | 16-fold |  |  |  | 0.38 | 8-fold | 4-fold | 256 | > 256 | 0.25 | 0.25 |
| CCn1cc(C(=O)O)c(=O)c2cc(F)c(N3CCNCC3)cc21 [Norfloxacin] |  |  |  | 1.13 | No | 8-fold |  |  |  | 0.5 | 4-fold | 4-fold | 0.25 | 0.5 | 32 | 32 |
| CC(C)(O/N=C(\C(=O)N[C@@H]1C(=O)N2C(C(=O)[O-])=C(C[n+]3ccccc3)CS[C@H]12)c1csc(N)n1)C(=O)O [Ceftazidime] |  |  |  | 0.5 | 4-fold | 4-fold |  |  |  | 0.5 | 4-fold | 4-fold | 2 | 1 | 64 | 32 |
| CCC[C@@H]1C[C@@H](C(=O)N[C@@H]([C@H]2O[C@H](SC)[C@H](O)[C@@H](O)[C@H]2O)[C@H](C)Cl)N(C)C1 [Clindamycin] |  |  |  | 1 | 2-fold | 2-fold |  |  |  | 0.635 | 2-fold | 8-fold | > 256 | > 256 | 0.5 | 0.125 |
| COc1cc(Cc2cnc(N)nc2N)cc(OC)c1OC [Trimethoprim] |  |  |  | 1 | 2-fold | 2-fold |  |  |  | 0.56 | 2-fold | 16-fold | 128 | 256 | 8 | 2 |
| Gentamicin | 4 | 1 | 4 | 0.53 | 2-fold | 32-fold | 0.06 | 0.06 | 0.03 | 1.13 | No | 8-fold |  |  |  |  |
| O=C(O)c1cn(C2CC2)c2cc(N3CCNCC3)c(F)cc2c1=O [Ciprofloxacin] |  |  |  | 0.53 |  |  |  |  |  | 0.5 |  |  |  |  |  |  |
| CO/N=C(\C(=O)N[C@@H]1C(=O)N2C(C(=O)[O-])=C(C[N+]3(C)CCCC3)CS[C@H]12)c1csc(N)n1 [Cefepime] |  |  |  | 0.56 | 2-fold | 16-fold |  |  |  | 0.38 | 8-fold | 4-fold | 0.5 | 1 | 8 | 8 |
| NCC[C@H](O)C(=O)N[C@@H]1C[C@H](N)[C@@H](O[C@H]2O[C@H](CN)[C@@H](O)[C@H](O)[C@H]2O)[C@H](O)[C@H]1O[C@H]1O[C@H](CO)[C@@H](O)[C@H](N)[C@H]1O [Amikacin] |  |  |  | 1.06 | No | 16-fold |  |  |  | 1 | 2-fold | 2-fold | 4 | 0.5 | 0.5 | 0.5 |
| CCN1CCN(C(=O)N[C@@H](C(=O)N[C@@H]2C(=O)N3[C@@H]2SC(C)(C)[C@@H]3C(=O)O)c2ccccc2)C(=O)C1=O [Piperacillin] |  |  |  | 1 | 2-fold | 2-fold |  |  |  | 0.63 | 2-fold | 8-fold | 4 | 8 | 4 | 4 |
| NC[C@H]1O[C@H](O[C@H]2[C@H](O)[C@@H](O[C@H]3O[C@H](CO)[C@@H](O)[C@H](N)[C@H]3O)[C@H](N)C[C@@H]2N)[C@H](N)C[C@@H]1O [Tobramycin] |  |  |  | 1 | 2-fold | 2-fold |  |  |  | 0.38 | 8-fold | 4-fold | 2 | 0.5 | 0.125 | 0.125 |
| Polyvinylpyrrolidone-Iodine | 313 | 2500 | 313 | 0.52 | 2-fold | 64-fold | 156 | 2500 | 156 | 0.63 | 2-fold | 8-fold |  |  |  |  |
| C[C@H]1COc2c(N3CCN(C)CC3)c(F)cc3c(=O)c(C(=O)O)cn1c23 [Levofloxacin] | 0.125 |  | 0.125 | 0.63 | 2-fold | 8-fold |  |  |  | 0.75 | 4-fold | 2-fold |  | 0.25 | 8 | 4 |
| C[C@@H](O)[C@H]1C(=O)N2C(C(=O)O)=C(S[C@@H]3CN[C@H](C(=O)N(C)C)C3)[C@H](C)[C@H]12 [Meropenem] |  |  |  | 1.06 | 16-fold | No |  |  |  | 0.31 | 16-fold | 4-fold | 0.06 | 0.25 | 0.25 | 0.125 |
| O=[N+]([O-])[O-].[Ag+] [AgNO3] | 0.03 | 0.125 | 0.03 | 1 | 2-fold | 2-fold | 0.25 | 0.25 | 0.25 | 1.13 | No | 8-fold |  |  |  |  |
| Polymyxin B | 2 | 2 | 2 | 0.56 | 16-fold | 2-fold | 2 | 4 | 2 | 0.5 | 4-fold | 4-fold |  |  |  |  |
| CC[C@H]1OC(=O)[C@H](C)[C@@H](O[C@H]2C[C@@](C)(OC)[C@@H](O)[C@H](C)O2)[C@H](C)[C@@H](O[C@@H]2O[C@H](C)C[C@H](N(C)C)[C@H]2O)[C@](C)(O)C[C@@H](C)CN(C)[C@H](C)[C@@H](O)[C@]1(C)O [Azithromycin] |  |  |  | 0.75 | 2-fold | 4-fold |  |  |  | 0.38 | 8-fold | 4-fold | 128 | 128 | 4 | 1 |
| C/C(=C\C(=O)OCCCCCCCCC(=O)O)C[C@@H]1OC[C@H](C[C@@H]2O[C@H]2[C@@H](C)[C@H](C)O)[C@@H](O)[C@H]1O [Mupirocin] |  |  |  |  | No | No |  |  |  | 0.75 | 2-fold | 4-fold | > 128 | > 256 | 0.25 | 0.125 |
